# Data: patent US11807835B2, “Detergent compositions containing a stabilized enzyme by phosphonates” (ECOLAB USA INC., priority 2016, dated 2023)
# Test system: lipase
# Assay: Lipase activity retention in detergent use solution (4000 ppm, 5 GPG water; p-nitrophenyl valerate, TRIS buffer pH 8.0)
# Type: biochemical
# Settings: for Relative Lipase Enzyme Activity in a Use Solution of the All Ash Detergent Composition: Table 6F, 120º F.; for Relative Lipase Enzyme Activity: base formula
# Protocol: The enzyme […] collected up to 4 hours, after a use solution was generated from the detergent composition. During the tests, the samples at different time points were collected and immediately frozen in an acetone/dry ice bath and stored in −80° C. before the activity of the enzyme was evaluated. For the use of such an assay, t=0 min was the reference point for 100% enzyme activity.
# Assays of enzyme activity in formulations (% retention) were conducted to simulate a presoak condition in a beaker using the chemistry, temperature, and pH conditions relevant to manual warewash or presoak applications. Enzyme activity is an indicator of the stability of the enzyme in the detergent, specifically in an aqueous use solution within a sump (which is under conditions of high pH, temperature and dilution).
# Enzyme activity under presoak or manual warewash conditions was traced quantitatively using a standard protease assay. Samples were prepared under bench top conditions, whereby the use solution from a detergent composition or detergent was obtained and maintained at a presoak or manual warewash temperature in a stirring water bath. After the time course for assessing enzyme stability is initiated, aliquots were taken at various time points and flash-frozen. A time=0 sample was prepared for each series by dissolving the detergent formulation at room temperature, mixing thoroughly, and flash freezing. Samples were thawed and diluted as necessary in an assay buffer usually for use in the protease assay. A glycine buffer at pH 9.0 is used here. The assay monitored the direct reaction of the protease on a small, commercially available peptidyl substrate, with liberation of the product providing correlation to the active enzyme content. The product was detected using a plate reader with an appreciable dynamic range (upper absorbance limit of the instrument >3.5). Enzyme activity levels were assessed relative to a calibration curve with average values for replicate tests used to map protease stability under presoak or manual warewash use conditions. Enzyme retention at each time point was calculated as the % enzyme activity relative to the time=0 sample.
# The analysis by lipase and amylase assay was conducted similarly, except with a different substrate and buffers. For lipase activity, the substrate is p-nitrophenyl valerate, and for amylase, the substrate is an ethylidene substrate (EPS). The buffer used in lipase assay is TRIS (Tris(hydroxymethyl)aminomethane) buffer at pH 8.0, and in amylase assay HEPES (4-(2-hydroxyethyl)-1-piperazineethanesulfonic acid) buffer at pH 8.0.
structure (smiles),measurement,setting,value
"O=P(O)(O)CN(CP(=O)(O)O)CP(=O)(O)O [ATMP, Aminotri (methylene phosphonic acid)]",Relative Lipase Enzyme Activity in a Use Solution of the All Ash Detergent Composition,"all ash formula, phosphonate 0.3 wt-%, time 0 min",100.00%
same,Relative Lipase Enzyme Activity in a Use Solution of the All Ash Detergent Composition,"all ash formula, phosphonate 0.3 wt-%, time 5 min",61.64%
same,Relative Lipase Enzyme Activity in a Use Solution of the All Ash Detergent Composition,"all ash formula, phosphonate 0.3 wt-%, time 10 min",63.66%
same,Relative Lipase Enzyme Activity in a Use Solution of the All Ash Detergent Composition,"all ash formula, phosphonate 0.3 wt-%, time 20 min",54.08%
same,Relative Lipase Enzyme Activity in a Use Solution of the All Ash Detergent Composition,"all ash formula, phosphonate 0.3 wt-%, time 40 min",41.20%
same,Relative Lipase Enzyme Activity in a Use Solution of the All Ash Detergent Composition,"all ash formula, phosphonate 0.3 wt-%, time 60 min",36.19%
same,Relative Lipase Enzyme Activity in a Use Solution of the All Ash Detergent Composition,"all ash formula, phosphonate 0.3 wt-%, time 90 min",30.66%
same,Relative Lipase Enzyme Activity in a Use Solution of the All Ash Detergent Composition,"all ash formula, phosphonate 0.3 wt-%, time 120 min",19.17%
same,Relative Lipase Enzyme Activity in a Use Solution of the All Ash Detergent Composition,"all ash formula, phosphonate 0.3 wt-%, time 150 min",23.54%
same,Relative Lipase Enzyme Activity in a Use Solution of the All Ash Detergent Composition,"all ash formula, phosphonate 0.3 wt-%, time 180 min",14.43%
same,Relative Lipase Enzyme Activity in a Use Solution of the All Ash Detergent Composition,"all ash formula, phosphonate 0.3 wt-%, time 210 min",13.63%
same,Relative Lipase Enzyme Activity in a Use Solution of the All Ash Detergent Composition,"all ash formula, phosphonate 0.3 wt-%, time 240 min",12.97%
same,lipase stability in all ash formula,"all ash formula, versus same composition with PBTC or HEDP without amine(s), FIG. 6G",more stable
same,Relative Lipase Enzyme Activity,"phosphonate 0.3 wt-%, use solution at 120° F., time 0 min",100.00%
same,Relative Lipase Enzyme Activity,"phosphonate 0.3 wt-%, use solution at 120° F., time 5 min",79.77%
same,Relative Lipase Enzyme Activity,"phosphonate 0.3 wt-%, use solution at 120° F., time 10 min",71.10%
same,Relative Lipase Enzyme Activity,"phosphonate 0.3 wt-%, use solution at 120° F., time 20 min",62.47%
same,Relative Lipase Enzyme Activity,"phosphonate 0.3 wt-%, use solution at 120° F., time 40 min",39.28%
same,Relative Lipase Enzyme Activity,"phosphonate 0.3 wt-%, use solution at 120° F., time 60 min",34.01%
same,Relative Lipase Enzyme Activity,"phosphonate 0.3 wt-%, use solution at 120° F., time 90 min",26.70%
same,Relative Lipase Enzyme Activity,"phosphonate 0.3 wt-%, use solution at 120° F., time 120 min",22.13%
same,Relative Lipase Enzyme Activity,"phosphonate 0.3 wt-%, use solution at 120° F., time 150 min",19.07%
same,Relative Lipase Enzyme Activity,"phosphonate 0.3 wt-%, use solution at 120° F., time 180 min",17.48%
same,Relative Lipase Enzyme Activity,"phosphonate 0.3 wt-%, use solution at 120° F., time 210 min",15.49%
same,Relative Lipase Enzyme Activity,"phosphonate 0.3 wt-%, use solution at 120° F., time 240 min",14.68%
same,Relative Lipase Enzyme Activity,"phosphonate 0.6 wt-%, use solution at 120º F., time 0 min",100.00%
same,Relative Lipase Enzyme Activity,"phosphonate 0.6 wt-%, use solution at 120º F., time 5 min",93.26%
same,Relative Lipase Enzyme Activity,"phosphonate 0.6 wt-%, use solution at 120º F., time 10 min",87.80%
same,Relative Lipase Enzyme Activity,"phosphonate 0.6 wt-%, use solution at 120º F., time 20 min",81.36%
same,Relative Lipase Enzyme Activity,"phosphonate 0.6 wt-%, use solution at 120º F., time 40 min",60.03%
same,Relative Lipase Enzyme Activity,"phosphonate 0.6 wt-%, use solution at 120º F., time 60 min",56.12%
same,Relative Lipase Enzyme Activity,"phosphonate 0.6 wt-%, use solution at 120º F., time 90 min",49.58%
same,Relative Lipase Enzyme Activity,"phosphonate 0.6 wt-%, use solution at 120º F., time 120 min",42.20%
same,Relative Lipase Enzyme Activity,"phosphonate 0.6 wt-%, use solution at 120º F., time 150 min",37.91%
same,Relative Lipase Enzyme Activity,"phosphonate 0.6 wt-%, use solution at 120º F., time 180 min",33.77%
same,Relative Lipase Enzyme Activity,"phosphonate 0.6 wt-%, use solution at 120º F., time 210 min",32.19%
same,Relative Lipase Enzyme Activity,"phosphonate 0.6 wt-%, use solution at 120º F., time 240 min",29.80%
same,Relative Lipase Enzyme Activity,"phosphonate at 0.1% elemental phosphorus, at 120º F. or at room temperature (as titled), time 0 min",100.00%
same,Relative Lipase Enzyme Activity,"phosphonate at 0.1% elemental phosphorus, at 120º F. or at room temperature (as titled), time 5 min",82.14%
same,Relative Lipase Enzyme Activity,"phosphonate at 0.1% elemental phosphorus, at 120º F. or at room temperature (as titled), time 10 min",78.45%
same,Relative Lipase Enzyme Activity,"phosphonate at 0.1% elemental phosphorus, at 120º F. or at room temperature (as titled), time 20 min",64.87%
same,Relative Lipase Enzyme Activity,"phosphonate at 0.1% elemental phosphorus, at 120º F. or at room temperature (as titled), time 40 min",45.84%
same,Relative Lipase Enzyme Activity,"phosphonate at 0.1% elemental phosphorus, at 120º F. or at room temperature (as titled), time 60 min",37.66%
same,Relative Lipase Enzyme Activity,"phosphonate at 0.1% elemental phosphorus, at 120º F. or at room temperature (as titled), time 90 min",30.16%
same,Relative Lipase Enzyme Activity,"phosphonate at 0.1% elemental phosphorus, at 120º F. or at room temperature (as titled), time 120 min",25.91%
same,Relative Lipase Enzyme Activity,"phosphonate at 0.1% elemental phosphorus, at 120º F. or at room temperature (as titled), time 150 min",21.51%
same,Relative Lipase Enzyme Activity,"phosphonate at 0.1% elemental phosphorus, at 120º F. or at room temperature (as titled), time 180 min",15.43%
same,Relative Lipase Enzyme Activity,"phosphonate at 0.1% elemental phosphorus, at 120º F. or at room temperature (as titled), time 210 min",17.94%
same,Relative Lipase Enzyme Activity,"phosphonate at 0.1% elemental phosphorus, at 120º F. or at room temperature (as titled), time 240 min",15.64%
